Measured values from patent US8119632B2, “Bicyclic amide derivatives for enhancing glutamatergic synaptic responses” (Cortex Pharmaceuticals, Inc., priority 2007, dated 2012).

Columns and labels:
AMPA receptor = experiment: In vivo electrophysiology: amplitude of field EPSP in dentate gyrus of anesthetized animals; design: species or system rat; conditions: for In vivo Electrophysiology: % increase in the amplitude of the field EPSP in the dentate gyrus of rat: 10 mpk i.p.
Description: (§1) The electrophysiological effects of the invention compounds were tested in vivo in anesthetized animals according to the following procedures. Animals are maintained under anesthesia by phenobarbital administered using a Hamilton syringe pump. Stimulating and recording electrodes are inserted into the perforant path and dentate gyrus of the hippocampus, respectively. Once electrodes are implanted, a stable baseline of evoked responses are elicited using single monophasic pulses (100 μs pulse duration) delivered at 3/min to the stimulating electrode. Field EPSPs are monitored until a stable baseline is achieved (about 20-30 min), after which a solution of test compound is injected intraperitoneally and evoked field potentials are recorded. Evoked potentials were recorded for approximately 2 h following drug administration or until the amplitude of the field EPSP returns to baseline. In the latter instance, it is common that an iv administration is also carried out with an appropriate dose of the same test compound. Invention compounds were assayed in the in vivo electrophysiology assay described above and data for representative test compounds is shown in the Table.
The electrophysiological effects of invention compounds were tested in vivo in anesthetized animals according to the following procedures.
as §1, with “Animals” for “The electrophysiological effects of the invention compounds were tested in vivo in anesthetized animals according to the following procedures. Animals”, “are” for “were”, “compound.” for “compound. Invention compounds were assayed in the in vivo electrophysiology assay described above and data for representative test compounds is shown in the Table.”

| SMILES | melting point [°C] | In vivo Electrophysiology: % increase in the amplitude of the field EPSP in the dentate gyrus of rat (AMPA receptor) [%] | increase in amplitude of the field EPSP (AMPA receptor; rat dentate gyrus, 50 mg/kg i.p.) [%] |
| --- | --- | --- | --- |
| O=C(c1ccc2nonc2c1)N1C2CCC1COC2 [Example 1, [2,1,3]-Benzoxadiazol-5-yl(3-oxa-8-azabicyclo[3.2.1]oct-8-yl)methanone] | 139 to 140 | 17 | – |
| O=C(c1ccc2nccnc2c1)N1CCCCC1 [CX516, 1-(quinoxalin-6-ylcarbonyl)piperdine, reference compound] | – | – | 9 |
| O=C(c1ccc2nonc2c1)N1C2COCC1COC2 [Example 3, [2,1,3]-Benzoxadiazol-5-yl(3,7-dioxa-9-azabicyclo[3.3.1]non-9-yl)methanone] | 197 to 199 | 15 | – |
| O=C(c1ccc2nonc2c1)N1C2CCCC1COC2 [Example 2, [2,1,3]-Benzoxadiazol-5-yl(3-oxa-9-azabicyclo[3.3.1]non-9-yl)methanone] | 128 to 130 | 16 | – |
